Data published in patent publication US20040171489A1, “Synergistic active compound combinations for controlling harmful plants” (priority 1998, published 2004).

Assays:
winter wheat [1] = assay: Example 7a field trial, 2-4 leaf stage: crop damage; format: in vivo, Triticum aestivum; settings: 28 days after application
Experimental: (§1) The herbicidal efficacy of the active compounds or active compound mixtures was scored visually using the treated plots in comparison to untreated control plots. The damage and development of all above-ground parts of the plants were recorded. Scoring was carried out using a percentage scale (100% effect=all plants killed; 50% effect=50% of the plants and the green parts of the plants killed; 0% effect=no noticeable effect=like control plot. The scores of in each case 4 plots were averaged.
(§2) If the observed activity values already exceed the formal sum of the values for the trials with the individual applications, they also exceed the expected value according to Colby which is calculated using the following formula and which is likewise considered to be an indication of synergism (cf. S. R. Colby; in Weeds 15 (1967) p. 20 to 22):
(§3) Crop plants were grown outdoors on plots under natural outdoor conditions, and seeds or rhizome pieces of typical harmful plants were laid out or the natural weed growth was utilized. Treatment with the compositions according to the invention was carried out after the harmful plants had emerged and the crop plants were, generally, at the 2- to 4-leaf stage; in some cases (as stated), application of individual active compounds or active compound combinations was carried out pre-emergence (cf. Section 1) or post-emergence (cf. Section 2) or as a sequential treatment partly pre-emergence and/or post-emergence. After the application, for example 2, 4, 6 and 8 weeks after the application, the effect of the preparations was scored visually by comparison with untreated controls (cf. scoring in Section 1). In the field trial as well, the compositions according to the invention have synergistic herbicidal activity against a broad spectrum of economically important weed grasses and broad-leaved weeds. […] Moreover, the effects in essential phases of the scoring period were above the expected values according to Colby, also indicating synergism. […]

Chenopodium album = assay: Example 7a field trial, 2-4 leaf stage: herbicidal effect; format: in vivo; settings: 28 days after application
Experimental: as §1, §2, §3

Veronica persicaria = assay: Example 6 field trial, stage begin of VERPE blossom: herbicidal effect; format: in vivo; settings: 50 g of ai/ha; 28 days after application
Experimental: as §1, §2
(§4) Crop plants were grown outdoors on plots under natural outdoor conditions, and seeds or rhizome pieces of typical harmful plants were laid out or the natural weed growth was utilized. […] After the application, for example 2, 4, 6 and 8 weeks after the application, the effect of the preparations was scored visually by comparison with untreated controls (cf. scoring in Section 1). […]

winter wheat [2] = assay: Example 6 field trial, stage begin of VERPE blossom: crop damage; format: in vivo, Triticum aestivum; settings: 50 g of ai/ha; 28 days after application
Experimental: as §1, §2, §4

winter wheat [3] = assay: Example 7b field trial, 2-4 leaf stage: crop damage; format: in vivo, Triticum aestivum; settings: 50 g of ai/ha; 28 days after application
Experimental: as §1, §2, §4

Stellaria media = assay: Example 7b field trial, 2-4 leaf stage: herbicidal effect; format: in vivo; settings: 50 g of ai/ha; 28 days after application
Experimental: as §1, §2, §4

winter barley [4] = assay: Example 2 field trial, fall application 2-4 leaf stage: crop damage; format: in vivo, Hordeum vulgare; settings: 45 days after the application
Experimental: as §1, §2, §4

winter wheat [5] = assay: Example 4 field trial, application fall 2-4 leaf stage: crop damage; format: in vivo, Triticum aestivum; settings: 100 g of ai/ha; 60 days after application
Experimental: as §1, §2, §4

winter wheat [6] = assay: Example 3 field trial, fall application 2-4 leaf stage: crop damage; format: in vivo, Triticum aestivum; settings: 60 days after application
Experimental: as §1, §2, §4

Papaver rhoeas [7] = assay: Example 2 field trial, fall application 2-4 leaf stage: herbicidal effect; format: in vivo; settings: 45 days after the application
Experimental: as §1, §2, §4

Viola arvensis [8] = assay: Example 3 field trial, fall application 2-4 leaf stage: herbicidal effect; format: in vivo; settings: 60 days after application
Experimental: as §1, §2, §4

winter barley [9] = assay: Example 5 field trial, 2-4 leaf stage: crop damage; format: in vivo, Hordeum vulgare; settings: 28 days after application
Experimental: as §1, §2, §3

winter barley [10] = assay: Example 1 field trial, 2-4 leaf stage: crop damage; format: in vivo, Hordeum vulgare; settings: 28 days after application
Experimental: as §1, §2
(§5) Crop plants were grown outdoors on plots under natural outdoor conditions, and seeds or rhizome pieces of typical harmful plants were laid out or the natural weed growth was utilized. Treatment with the compositions according to the invention was carried out after the harmful plants had emerged and the crop plants were, generally, at the 2- to 4-leaf stage; in some cases (as stated), application of individual active compounds or active compound combinations was carried out pre-emergence (cf. Section 1) or post-emergence (cf. Section 2) or as a sequential treatment partly pre-emergence and/or post-emergence. After the application, for example 2, 4, 6 and 8 weeks after the application, the effect of the preparations was scored visually by comparison with untreated controls (cf. scoring in Section 1). In the field trial as well, the compositions according to the invention have synergistic herbicidal activity against a broad spectrum of economically important weed grasses and broad-leaved weeds. […] Moreover, the effects in essential phases of the scoring period were above the expected values according to Colby, also indicating synergism. In contrast, the crop plants were, as a consequence of the treatments with the herbicidal compositions, damaged only to a small degree, if at all.

Aphanes arvensis = assay: Example 4 field trial, application fall 2-4 leaf stage: herbicidal effect; format: in vivo; settings: 100 g of ai/ha; 60 days after application
Experimental: as §1, §2, §4

Veronica hederifolia = assay: as above; format: in vivo; settings: 100 g of ai/ha; 60 days after application
Experimental: as §1, §2, §4

Papaver rhoeas [11] = assay: Example 1 field trial, 2-4 leaf stage: herbicidal effect; format: in vivo; settings: 28 days after application
Experimental: as §1, §2, §5

Papaver rhoeas [12] = assay: Example 5 field trial, 2-4 leaf stage: herbicidal effect; format: in vivo; settings: 28 days after application
Experimental: as §1, §2, §3

winter barley [13] = assay: Example 16 field trial, post-emergence, 2- to 3-leaf stage: crop damage; format: in vivo, Hordeum vulgare; settings: in vivo
Experimental: as §1, §2, §4

Papaver rhoeas [14] = assay: Example 16 field trial, post-emergence, 2- to 3-leaf stage: herbicidal effect; format: in vivo; settings: 180 g of ai/ha; 69 days after application
Experimental: as §1, §2, §5

Viola arvensis [15] = assay: as above; format: in vivo; settings: 180 g of ai/ha; 69 days after application
Experimental: as §1, §2, §5

Galium aparine [16] = assay: as above; format: in vivo; settings: 180 g of ai/ha; 69 days after application
Experimental: as §1, §2, §5

Matricaria chamomilla = assay: as above; format: in vivo; settings: 180 g of ai/ha; 69 days after application
Experimental: as §1, §2, §5

Lamium ssp. = assay: as above; format: in vivo; settings: 180 g of ai/ha; 69 days after application
Experimental: as §1, §2, §5

Anthemis arvensis = assay: as above; format: in vivo; settings: 180 g of ai/ha; 69 days after application
Experimental: as §1, §2, §5

Myosotis arvensis = assay: as above; format: in vivo; settings: 180 g of ai/ha; 69 days after application
Experimental: as §1, §2, §5

winter wheat [17] = assay: Example 16 field trial, post-emergence, 2- to 3-leaf stage: crop damage; format: in vivo, Triticum aestivum; settings: in vivo
Experimental: as §1, §2, §4

Galium aparine [18] = assay: Example 10 pre-emergence application, fall: herbicidal effect; format: in vivo; settings: 180 g of ai/ha; 169 days after application
Excerpt: (§6) Seeds or rhizome pieces of monocotyledonous and dicotyledonous weed plants are placed in sandy loam soil in pots and covered with soil. The compositions, formulated in the form of concentrated aqueous solutions, wettable powders or emulsion concentrates, are then applied to the surface of the soil cover as aqueous solution, suspension or emulsion at an application rate of 600 to 800 l of water/ha (converted), in various dosages. After the treatment, the pots are placed in a greenhouse and kept under good growth conditions for the weeds. After the test plants have emerged, the damage to the plants or the negative effects on the emergence is scored visually after a test period of 3 to 4 weeks by comparison with untreated controls. As shown by the test results, the compositions according to the invention have good herbicidal pre-emergence activity against a broad spectrum of weed grasses and broad-leaved weeds.
as §1, §2, §5

winter wheat [19] = assay: Example 10 pre-emergence application, fall: crop damage; format: in vivo, Triticum aestivum; settings: winter wheat (Triticum aestivum), in vivo, 169 days
Excerpt: as §6, §1, §2, §5

Compound: CCC(CCc1ccccc1)Nc1nc(N)nc(C(C)(C)F)n1 (stereo not drawn) [(A3), 4-amino-6-(1-fluoro-1-methylethyl)-2-(3-phenyl-1-ethylpropylamino)-1,3,5-triazine]
- damage, TRZAW (winter wheat [1]; 25 g of ai/ha): 1%
- damage, TRZAW (winter wheat [1]; 50 g of ai/ha): 0%
- damage, TRZAW (winter wheat [1]; 100 g of ai/ha): 10%
- herbicidal effect, CHEAL (Chenopodium album; 25 g of ai/ha): 5%
- herbicidal effect, CHEAL (Chenopodium album; 50 g of ai/ha): 35%
- herbicidal effect, CHEAL (Chenopodium album; 100 g of ai/ha): 85%
- herbicidal effect, VERPE (Veronica persicaria): 55%
- damage, TRZAW (winter wheat [2]): 0%
- damage, TRZAW (winter wheat [3]): 2%
- herbicidal effect, STEME (Stellaria media): 48%

Compound: CC(COc1cccc(Cl)c1)Nc1nc(N)nc(C(C)(C)F)n1 (stereo not drawn) [(A4), 4-amino-6-(1-fluoro-1-methylethyl)-2-[2-(3-chlorophenoxy)-1-methylethyl-amino]-1,3,5-triazine]
- damage, HORVW (winter barley [4]; 50 g of ai/ha): 0%
- damage, HORVW (winter barley [4]; 100 g of ai/ha): 0%
- damage, TRZAW (winter wheat [5]): 0%
- damage, TRZAW (winter wheat [6]; 50 g of ai/ha): 0%
- damage, TRZAW (winter wheat [6]; 100 g of ai/ha): 0%
- herbicidal effect, PAPRH (Papaver rhoeas [7]; 50 g of ai/ha): 0%
- herbicidal effect, PAPRH (Papaver rhoeas [7]; 100 g of ai/ha): 0%
- herbicidal effect, VIOAR (Viola arvensis [8]; 50 g of ai/ha): 78%
- herbicidal effect, VIOAR (Viola arvensis [8]; 100 g of ai/ha): 88%
- damage, HORVW (winter barley [9]; 50 g of ai/ha): 0%
- damage, HORVW (winter barley [9]; 100 g of ai/ha): 0%
- damage, HORVW (winter barley [10]; 25 g of ai/ha): 0%
- damage, HORVW (winter barley [10]; 50 g of ai/ha): 0%
- damage, HORVW (winter barley [10]; 100 g of ai/ha): 0%
- herbicidal effect, Aphanes arvensis (Aphanes arvensis): 20%
- herbicidal effect, Veronica hederifolia (Veronica hederifolia): 40%
- herbicidal effect, PAPRH (Papaver rhoeas [11]; 25 g of ai/ha): 0%
- herbicidal effect, PAPRH (Papaver rhoeas [11]; 50 g of ai/ha): 0%
- herbicidal effect, PAPRH (Papaver rhoeas [11]; 100 g of ai/ha): 0%
- herbicidal effect, PAPRH (Papaver rhoeas [12]; 50 g of ai/ha): 0%
- herbicidal effect, PAPRH (Papaver rhoeas [12]; 100 g of ai/ha): 0%

Compound: CC(C)N(C(=O)COc1nnc(C(F)(F)F)s1)c1ccc(F)cc1 [(B1.2.1), fluthiamide, reference compound]
- herbicidal effect (%), HORVW (crop) (winter barley [13]): 0%
- herbicidal effect (%), PAPRH (Papaver rhoeas [14]): 12%
- herbicidal effect (%), VIOAR (Viola arvensis [15]): 20%
- herbicidal effect (%), GALAP (Galium aparine [16]): 68%
- herbicidal effect (%), MATCH (Matricaria chamomilla): 61%
- herbicidal effect (%), LAMSS (Lamium ssp.): 87%
- herbicidal effect (%), ANTAR (Anthemis arvensis): 25%
- herbicidal effect (%), MYOAR (Myosotis arvensis): 16%
- herbicidal effect (%), TRZAW (crop) (winter wheat [17]): 0%
- herbicidal effect, GALAP (Galium aparine [18]): 45%
- damage, TRZAW (winter wheat [19]): 2%
